This passage reports EC50 and IC50 results from US6821986B2, “Amino acid derivatives and their use as medicines” (Societe de Conseils de Recherchet et E'Applications …, priority 2000, dated 2004).

The subject of one experiment is HT-22 cells. Put plainly: Protection of HT-22 cells from oxidation stress induced by glutamate (MTT viability). Format: cell-based. The settings on record: Mus musculus, glutamate 5 mM, cell viability after 24 h by MTT. As for the experimental part:
Study of the Effects on the Oxidation Stress Induced by Glutamate on Cells in Culture (HT-22).
The inhibitory activity of the products of the invention is determined by measuring their ability to protect the cells of a mouse hippocampal line (HT-22) from an oxidation stress caused by glutamate. The biosynthesis of glutathione, an essential element of cell detoxification of free radicals, requires the active transport of cystine to the interior of the cell. The glutamate by opposing the penetration of cystine causes a reduction in the level of glutathione which leads to the death of the cell due to oxidation stress (Demerlé-Pallardy, C. et al., J. Neurochem. (2000) 74, 2079-2086; Murphy, T. H. et al., Neuron, (1989) 2: 1547-1558). The cells are cultured at 37° C. in a DMEM medium with 10% of foetal calf serum added to it. The tests are carried out in 96-well plates containing 5000 cells per well. The glutamate (5 mM) is added to the medium containing or not containing the products to be tested. The cell viability is tested after 24 h by the MTT method (Hansen, M. B. et al., J Immunol. Methods (1989), 119, 203-210). The ability of the compounds to protect the cells from the toxic action of the glutamate is estimated in EC50, calculated relative to the viability of cells which have not been subjected to the action of glutamate considered as 100% viability.

Experiment [1] has as its target T1, neuronal constitutive NO synthase (Rattus norvegicus, UniProt P29476).
T1 construct: The reaction is initiated by adding 50 μl of homogenate; from tissue; host or cells: cerebellum of Sprague-Dawley rats (homogenate, centrifuged at 21000 g)
The experiment is described as follows: Effects on neuronal constitutive NO synthase of a rat's cerebellum ([3H]L-arginine to [3H]L-citrulline conversion). Type of experiment: biochemical. Particulars: rat cerebellum homogenate, conversion of [3H]L-arginine to [3H]L-citrulline, 15 min. As for the experimental part: Study of the Effects on Neuronal Constitutive NO Synthase of a Rat's Cerebellum
The inhibitory activity of the products of the invention is determined by measuring their effects on the conversion by NO synthase of [^3H]L-arginine to [^3H]L-citrulline according to the modified method of Bredt and Snyder (Proc. Natl. Acad. Sci. USA, (1990) 87: 682-685). The cerebellums of Sprague-Dawley rats (300 g-Charles River) are rapidly removed, dissected at 4° C. and homogenized in a volume of extraction buffer (HEPES 50 mM, EDTA 1 mM, pH 7.4, pepstatin A […], leupeptin […]). The homogenates are then centrifuged at 21000 g for 15 min at 4° C. Dosage is carried out in glass test tubes in which 100 μl of incubation buffer containing 100 mM of HEPES (pH 7.4), 2 mM of EDTA, 2.5 mM of CaCl2, 2 mM of dithiotreitol, 2 mM of reduced NADPH and 10 μg/ml of calmodulin are distributed. 25 μl of a solution containing 100 nM of [^3H]L-arginine (Specific activity: 56.4 Ci/mmole, Amersham) and 40 μM of non-radioactive L-arginine is added. The reaction is initiated by adding 50 μl of homogenate, the final volume being 200 μl (the missing 25 μl are either water or the tested product). […] After passing the samples through a 1 ml column of DOWEX resin, the radioactivity is quantified by a liquid scintillation spectrometer.

What is called EC50 is the concentration at which the effect is half-maximal. Read a low EC50 as a more potent agent. By IC50 is commonly meant the concentration at which inhibition is half-maximal. In the case of `N=C(NCCC[C@H](N)C(=O)Nc1ccc(Nc2ccccc2)cc1)N[N+](=O)[O-]` [Example 1, (2S)-2-amino-N-(4-anilinophenyl)-5-{[imino(2-oxido-2-oxohydrazino)methyl]amino}pentanamide], the EC50 with HT-22 cells was less than 25 µM. Besides, the IC50 in experiment [1] is less than 10 µM.
As for `CN1CCc2cc(NC(=O)[C@@H](N)CCCNC(=N)N[N+](=O)[O-])ccc21` [Example 2, (2S)-2-amino-5-{[imino(2-oxido-2-oxohydrazino)methyl]amino}-N-(1-methyl-2,3-dihydro-1H-indol-5-yl)pentanamide], the 50% effective concentration (EC50) in the experiment on HT-22 cells is less than 25 µM. This molecule also had an IC50 in experiment [1] of less than 10 µM.
